The numbers were not newly measured in patent publication US7851424B2, “Antimicrobial hand wash” (GOJO Industries, Inc., priority 2006, dated 2010), which cites them from elsewhere.

As a reminder, the pKa is the negative logarithm of the acid dissociation constant.

With `Oc1cc(Cl)ccc1Oc1ccc(Cl)cc1Cl` [Triclosan, 2,4,4′-trichloro-2′hydroxy-diphenylether], the pKa is 7.4.
